Experimental findings from patent US20250089707A1, “ECO-FRIENDLY QUARANTINE COMPOSITION HAVING FUNCTION OF KILLING PHOSPHOLIPID ENVELOPED VIRUS” (priority 2022, published 2025) are described below.

Some results are limits rather than exact numbers.

The test system of one test is Staphylococcus aureus. Briefly: Antibacterial activity, paper disc method.
The test system of the next test is Escherichia coli. Kind of test: Antibacterial activity, paper disc method.
For test [1], the system named is human epithelial keratinocyte cells (HaCaT). Briefly: Cytotoxicity, MTT, HaCaT. The note with it: 24 hours treatment.
In a further test the test system is Salmonella typhimurium. Kind of test: Antibacterial activity, paper disc method.
The test system of the next test is Streptococcus mutans. Briefly: Antibacterial activity, paper disc method.
Test [2] relates to human bronchial epithelial cells (BEAS-2B). Briefly: Cytotoxicity, MTT, BEAS-2B. The note with it: 24 hours treatment.
The test system of a further test is Bacillus subtilis. Kind of test: Antibacterial activity, paper disc method.
The test system of the next test is Pseudomonas aeruginosa. Briefly: Antibacterial activity, paper disc method.
Test [3] relates to human monocyte cells (THP-1). Kind of test: Cytotoxicity, MTT, THP-1. To be noted: THP-1, 24 hours treatment.
Test [4] deals with Staphylococcus epidermidis. Briefly: Antibacterial activity, paper disc method.

`CCCCCCCCCCCCCCCCCC(=O)[O-].[Na+]` [Example P-3, Sodium stearate]: the MIC in the test with Staphylococcus aureus, against Escherichia coli, in the test with Salmonella typhimurium, with Streptococcus mutans, against Bacillus subtilis and in the test with Pseudomonas aeruginosa was at least 100 μg/50 μl each time. Moreover, the MIC in test [4] was at least 100 μg/50 μl. Besides, the “IC50 value (%)” value is listed as 0.005292% in [1], 0.00969% in test [2] and 0.4165% in [3].
